Laboratory results published in PMC8371461 (Frontiers in Pharmacology, 2021).
Where two headings read alike, the source gives them in different places.

Assays:
ABL2 = target: T1, ABL2 (Homo sapiens, UniProt P42684); experiment: kinome scan; assay type: binding; settings: 10 µM
T1 construct: purchased DiscoverX (KINOMEscan)

ACVR2B = target: T2, ACVR2B (Homo sapiens, UniProt Q13705); experiment: kinome scan; assay type: binding; settings: 10 µM
T2 construct: purchased DiscoverX (KINOMEscan)

CSNK2A2 = target: T3, CSNK2A2 (Homo sapiens, UniProt P19784); experiment: kinome scan; assay type: binding; settings: 10 µM
T3 construct: purchased DiscoverX (KINOMEscan)

DRAK2 = target: T4, DRAK2 (Homo sapiens, UniProt O94768); experiment: kinome scan; assay type: binding; settings: 10 µM
T4 construct: purchased DiscoverX (KINOMEscan)
T4 sequence (O94768 whole entry): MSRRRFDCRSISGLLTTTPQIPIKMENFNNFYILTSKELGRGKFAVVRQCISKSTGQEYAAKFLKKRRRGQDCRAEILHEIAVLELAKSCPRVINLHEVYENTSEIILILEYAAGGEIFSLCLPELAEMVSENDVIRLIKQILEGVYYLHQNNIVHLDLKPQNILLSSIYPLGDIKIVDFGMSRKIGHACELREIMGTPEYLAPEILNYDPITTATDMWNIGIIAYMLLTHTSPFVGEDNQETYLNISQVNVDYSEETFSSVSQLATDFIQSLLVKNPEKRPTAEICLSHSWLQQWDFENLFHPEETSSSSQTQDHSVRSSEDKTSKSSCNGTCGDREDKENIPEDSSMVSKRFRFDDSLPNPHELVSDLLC

EGFR(S752-I759del) = target: T5, EGFR(S752-I759del) (Homo sapiens, UniProt P00533, DEL752-759); experiment: kinome scan; assay type: binding; settings: 10 µM
T5 construct: purchased DiscoverX (KINOMEscan)

EPHA8 = target: T6, EPHA8 (Homo sapiens, UniProt P29322); experiment: kinome scan; assay type: binding; settings: 10 µM
T6 construct: purchased DiscoverX (KINOMEscan)

INSRR = target: T7, INSRR (Homo sapiens, UniProt P14616); experiment: kinome scan; assay type: binding; settings: 10 µM
T7 construct: purchased DiscoverX (KINOMEscan)

[1] = target: T8, JAK1(JH1domain-catalytic) (Homo sapiens, UniProt P23458); experiment: kinome scan; assay type: binding; settings: 10 µM
T8 construct: JAK1(JH1domain-catalytic); purchased DiscoverX (KINOMEscan)

MKNK2 [2] = target: T9, MKNK2 (Homo sapiens, UniProt Q9HBH9); experiment: kinome scan; assay type: binding
T9 construct: purchased DiscoverX (KINOMEscan)
T9 sequence (Q9HBH9 whole entry): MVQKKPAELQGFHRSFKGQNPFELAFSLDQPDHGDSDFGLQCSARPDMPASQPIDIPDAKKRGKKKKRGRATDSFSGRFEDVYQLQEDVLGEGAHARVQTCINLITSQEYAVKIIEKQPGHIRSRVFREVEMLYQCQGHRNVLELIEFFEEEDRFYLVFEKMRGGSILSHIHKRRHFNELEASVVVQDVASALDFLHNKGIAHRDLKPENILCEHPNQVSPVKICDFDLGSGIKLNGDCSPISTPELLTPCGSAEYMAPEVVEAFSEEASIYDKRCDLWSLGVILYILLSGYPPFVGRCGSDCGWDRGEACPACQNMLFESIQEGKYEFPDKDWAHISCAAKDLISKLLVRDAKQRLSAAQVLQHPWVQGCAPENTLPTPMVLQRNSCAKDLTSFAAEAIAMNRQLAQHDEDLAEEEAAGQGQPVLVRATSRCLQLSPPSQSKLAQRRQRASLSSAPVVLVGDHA

p38-beta = target: T10, p38-beta (Homo sapiens, UniProt Q15759); experiment: kinome scan; assay type: binding; settings: 10 µM
T10 construct: purchased DiscoverX (KINOMEscan)

PDGFRB = target: T11, PDGFRB (Homo sapiens, UniProt P09619); experiment: kinome scan; assay type: binding; settings: 10 µM
T11 construct: purchased DiscoverX (KINOMEscan)
T11 sequence (P09619 33-1106): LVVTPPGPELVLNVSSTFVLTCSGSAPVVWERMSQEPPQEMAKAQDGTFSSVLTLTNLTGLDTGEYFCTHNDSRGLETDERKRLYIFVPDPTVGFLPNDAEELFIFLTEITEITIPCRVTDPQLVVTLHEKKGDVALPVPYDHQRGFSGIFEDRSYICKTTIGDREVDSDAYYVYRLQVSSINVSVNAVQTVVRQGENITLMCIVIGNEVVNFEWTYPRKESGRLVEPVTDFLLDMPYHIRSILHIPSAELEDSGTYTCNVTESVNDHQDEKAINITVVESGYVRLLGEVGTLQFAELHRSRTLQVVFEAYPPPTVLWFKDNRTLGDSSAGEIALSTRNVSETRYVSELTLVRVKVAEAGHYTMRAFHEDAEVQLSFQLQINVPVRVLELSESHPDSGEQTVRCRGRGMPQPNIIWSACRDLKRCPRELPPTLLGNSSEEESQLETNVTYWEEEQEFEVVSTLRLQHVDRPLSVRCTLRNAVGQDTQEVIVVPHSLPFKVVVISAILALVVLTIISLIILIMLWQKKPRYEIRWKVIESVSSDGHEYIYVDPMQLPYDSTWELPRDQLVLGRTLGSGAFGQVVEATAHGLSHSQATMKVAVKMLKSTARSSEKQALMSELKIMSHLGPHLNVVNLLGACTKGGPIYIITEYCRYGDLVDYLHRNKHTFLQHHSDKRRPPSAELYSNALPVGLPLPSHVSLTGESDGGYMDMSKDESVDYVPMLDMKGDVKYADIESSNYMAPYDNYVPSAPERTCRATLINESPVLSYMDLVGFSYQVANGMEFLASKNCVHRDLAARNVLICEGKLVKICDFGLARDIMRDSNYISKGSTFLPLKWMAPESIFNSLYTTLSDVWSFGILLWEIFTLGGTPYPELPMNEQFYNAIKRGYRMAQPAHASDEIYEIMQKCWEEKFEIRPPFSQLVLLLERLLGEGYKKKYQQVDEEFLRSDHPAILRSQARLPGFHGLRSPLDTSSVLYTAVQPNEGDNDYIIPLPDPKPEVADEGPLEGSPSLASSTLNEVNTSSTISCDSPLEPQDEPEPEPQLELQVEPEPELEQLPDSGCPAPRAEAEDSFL

PLK2 = target: T12, PLK2 (Homo sapiens, UniProt Q9NYY3); experiment: kinome scan; assay type: binding; settings: 10 µM
T12 construct: purchased DiscoverX (KINOMEscan)

PRKD2 = target: T13, PRKD2 (Homo sapiens, UniProt Q9BZL6); experiment: kinome scan; assay type: binding; settings: 10 µM
T13 construct: purchased DiscoverX (KINOMEscan)
T13 sequence (Q9BZL6 whole entry): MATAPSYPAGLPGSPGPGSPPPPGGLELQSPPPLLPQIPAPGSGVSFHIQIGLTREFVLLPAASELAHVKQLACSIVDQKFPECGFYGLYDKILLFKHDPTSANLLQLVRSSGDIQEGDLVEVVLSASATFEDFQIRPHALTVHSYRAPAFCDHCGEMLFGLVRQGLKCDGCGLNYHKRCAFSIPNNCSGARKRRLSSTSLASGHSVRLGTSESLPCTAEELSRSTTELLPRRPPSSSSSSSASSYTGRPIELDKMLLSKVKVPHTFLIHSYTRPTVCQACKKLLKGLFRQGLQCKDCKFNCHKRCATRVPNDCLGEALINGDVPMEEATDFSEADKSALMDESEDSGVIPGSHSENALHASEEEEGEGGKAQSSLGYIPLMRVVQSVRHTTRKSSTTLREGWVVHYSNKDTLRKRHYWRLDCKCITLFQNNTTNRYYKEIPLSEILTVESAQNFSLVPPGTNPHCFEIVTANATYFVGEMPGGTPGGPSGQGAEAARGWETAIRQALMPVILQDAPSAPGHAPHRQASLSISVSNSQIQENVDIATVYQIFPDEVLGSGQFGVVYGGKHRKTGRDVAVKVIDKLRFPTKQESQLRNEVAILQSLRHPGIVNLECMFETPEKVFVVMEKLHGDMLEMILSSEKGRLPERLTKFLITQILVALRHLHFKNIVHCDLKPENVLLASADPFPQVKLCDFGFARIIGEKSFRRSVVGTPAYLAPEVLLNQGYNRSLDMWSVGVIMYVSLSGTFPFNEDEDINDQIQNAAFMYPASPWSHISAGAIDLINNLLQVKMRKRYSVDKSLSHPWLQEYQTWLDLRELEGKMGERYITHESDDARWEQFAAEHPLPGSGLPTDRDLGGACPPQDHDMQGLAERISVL

PRKG1 = target: T14, PRKG1 (Homo sapiens, UniProt Q13976); experiment: kinome scan; assay type: binding; settings: 10 µM
T14 construct: purchased DiscoverX (KINOMEscan)

RIOK3 = target: T15, RIOK3 (Homo sapiens, UniProt O14730); experiment: kinome scan; assay type: binding; settings: 10 µM
T15 construct: purchased DiscoverX (KINOMEscan)

[3] = target: T16, RSK1(Kin.Dom.2-C-terminal) (Homo sapiens, UniProt Q15418); experiment: kinome scan; assay type: binding; settings: 10 µM
T16 construct: RSK1(Kin.Dom.2-C-terminal); purchased DiscoverX (KINOMEscan)

TAOK2 = target: T17, TAOK2 (Homo sapiens, UniProt Q9UL54); experiment: kinome scan; assay type: binding; settings: 10 µM
T17 construct: purchased DiscoverX (KINOMEscan)

TRKA = target: T18, TRKA (Homo sapiens, UniProt P04629); experiment: kinome scan; assay type: binding; settings: 10 µM
T18 construct: purchased DiscoverX (KINOMEscan)
T18 sequence (P04629 33-796): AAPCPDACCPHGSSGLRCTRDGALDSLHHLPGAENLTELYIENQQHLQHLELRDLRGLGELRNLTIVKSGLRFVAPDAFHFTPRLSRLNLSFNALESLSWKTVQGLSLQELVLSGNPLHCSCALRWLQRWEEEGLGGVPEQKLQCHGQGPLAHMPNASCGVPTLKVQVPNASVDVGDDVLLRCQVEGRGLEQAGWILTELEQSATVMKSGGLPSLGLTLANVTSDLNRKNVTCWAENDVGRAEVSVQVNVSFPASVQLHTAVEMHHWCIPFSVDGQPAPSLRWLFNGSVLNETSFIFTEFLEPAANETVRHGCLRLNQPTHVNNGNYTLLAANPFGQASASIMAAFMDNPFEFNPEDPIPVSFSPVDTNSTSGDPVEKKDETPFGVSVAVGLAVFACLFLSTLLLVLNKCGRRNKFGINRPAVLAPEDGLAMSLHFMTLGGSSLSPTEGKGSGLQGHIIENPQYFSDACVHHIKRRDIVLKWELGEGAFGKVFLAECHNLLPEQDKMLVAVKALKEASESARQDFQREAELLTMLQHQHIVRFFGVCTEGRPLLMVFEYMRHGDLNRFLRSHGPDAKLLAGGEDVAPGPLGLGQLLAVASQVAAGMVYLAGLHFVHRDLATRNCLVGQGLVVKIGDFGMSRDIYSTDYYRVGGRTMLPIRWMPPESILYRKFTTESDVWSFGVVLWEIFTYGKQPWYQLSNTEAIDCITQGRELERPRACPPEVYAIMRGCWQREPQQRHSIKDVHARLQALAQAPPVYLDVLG

YANK1 = target: T19, YANK1 (Homo sapiens, UniProt Q8WU08); experiment: kinome scan; assay type: binding; settings: 10 µM
T19 construct: purchased DiscoverX (KINOMEscan)

YANK3 = target: T20, YANK3 (Homo sapiens, UniProt Q86UX6); experiment: kinome scan; assay type: binding; settings: 10 µM
T20 construct: purchased DiscoverX (KINOMEscan)

YSK1 = target: T21, YSK1 (Homo sapiens, UniProt O00506); experiment: kinome scan; assay type: binding; settings: 10 µM
T21 construct: purchased DiscoverX (KINOMEscan)

[4] = target: Mitogen-activating protein kinase interacting Ser/Thr kinase (MNK2) (Homo sapiens, UniProt Q9HBH9); experiment: Dundee activity test; assay type: biochemical
Chain of Mitogen-activating protein kinase interacting Ser/Thr kinase (MNK2) (Q9HBH9 whole entry, species assumed): as the sequence (Q9HBH9 whole entry) above
Excerpt: (§1) In silico inverse screening is a ligand-driven methodology aiming at identifying a specific target for a given ligand. […] Table 2 contains for each kinase the name and acronym, the PDB identifier of the best-ranked structure, the ranking position in percent, the heavy atom RMSD of the co-crystallized ligand as a control, and the experimental confirmation from the kinome scan by Ambit Biosciences (http://www.ambitbio.com/) performed at the University of Dundee according to a previously described procedure ([Bain et al., 2003]).

[5] = target: Proto-oncogen Ser/Thr kinase PIM1 (PIM1) (Homo sapiens, UniProt P11309); experiment: Dundee activity test; assay type: biochemical
Chain of Proto-oncogen Ser/Thr kinase PIM1 (PIM1) (P11309 whole entry, species assumed): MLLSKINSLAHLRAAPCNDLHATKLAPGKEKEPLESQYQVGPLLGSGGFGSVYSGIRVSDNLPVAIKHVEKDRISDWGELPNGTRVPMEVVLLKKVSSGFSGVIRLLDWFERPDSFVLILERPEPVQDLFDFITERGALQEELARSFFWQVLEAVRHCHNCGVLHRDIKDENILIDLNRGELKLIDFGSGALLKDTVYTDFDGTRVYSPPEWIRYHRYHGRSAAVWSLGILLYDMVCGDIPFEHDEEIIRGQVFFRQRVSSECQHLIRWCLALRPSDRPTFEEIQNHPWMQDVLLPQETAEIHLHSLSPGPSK
Excerpt: as §1

Abelson (Abl) = Abelson (Abl) (Homo sapiens, UniProt P00519); experiment: Milano activity test; assay type: biochemical; settings: wild-type Abl; for Milano activity test: up to 100 µM
Chain of Abelson (Abl) (P00519 whole entry, species assumed): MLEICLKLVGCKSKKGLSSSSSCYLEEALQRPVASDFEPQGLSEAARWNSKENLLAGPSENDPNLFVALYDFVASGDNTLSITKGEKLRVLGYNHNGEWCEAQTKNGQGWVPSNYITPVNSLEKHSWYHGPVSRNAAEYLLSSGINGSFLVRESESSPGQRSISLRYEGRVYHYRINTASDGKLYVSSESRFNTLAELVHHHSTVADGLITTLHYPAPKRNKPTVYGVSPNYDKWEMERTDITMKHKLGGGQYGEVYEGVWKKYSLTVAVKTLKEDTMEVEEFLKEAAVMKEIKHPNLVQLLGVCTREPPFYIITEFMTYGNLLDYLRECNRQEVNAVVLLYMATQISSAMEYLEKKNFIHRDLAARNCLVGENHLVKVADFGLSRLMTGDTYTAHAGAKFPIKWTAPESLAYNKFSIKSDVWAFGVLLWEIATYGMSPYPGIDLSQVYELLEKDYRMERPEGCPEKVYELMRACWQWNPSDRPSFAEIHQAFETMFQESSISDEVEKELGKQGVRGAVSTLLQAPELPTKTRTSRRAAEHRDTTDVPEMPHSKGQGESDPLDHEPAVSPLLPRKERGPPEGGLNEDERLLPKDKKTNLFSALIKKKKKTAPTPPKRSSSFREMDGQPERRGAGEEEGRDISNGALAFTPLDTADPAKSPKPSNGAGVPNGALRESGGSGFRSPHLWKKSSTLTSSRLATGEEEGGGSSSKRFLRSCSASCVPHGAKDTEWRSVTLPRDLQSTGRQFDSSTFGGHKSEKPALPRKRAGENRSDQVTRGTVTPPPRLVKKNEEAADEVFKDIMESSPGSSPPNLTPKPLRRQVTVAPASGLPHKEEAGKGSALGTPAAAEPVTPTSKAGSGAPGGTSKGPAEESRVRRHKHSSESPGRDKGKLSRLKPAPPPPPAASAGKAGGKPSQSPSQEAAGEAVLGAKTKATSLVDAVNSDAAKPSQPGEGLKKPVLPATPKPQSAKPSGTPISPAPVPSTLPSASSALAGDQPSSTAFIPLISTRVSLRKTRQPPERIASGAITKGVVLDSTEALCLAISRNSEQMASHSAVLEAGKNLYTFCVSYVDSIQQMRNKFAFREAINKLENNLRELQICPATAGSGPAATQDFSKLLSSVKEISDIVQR

DYRK2 = target: T22, DYRK2 (Homo sapiens, UniProt Q92630); experiment: Kd select analysis (DiscoverX); assay type: binding
T22 construct: purchased DiscoverX (KINOMEscan)
T22 sequence (Q92630 1-601): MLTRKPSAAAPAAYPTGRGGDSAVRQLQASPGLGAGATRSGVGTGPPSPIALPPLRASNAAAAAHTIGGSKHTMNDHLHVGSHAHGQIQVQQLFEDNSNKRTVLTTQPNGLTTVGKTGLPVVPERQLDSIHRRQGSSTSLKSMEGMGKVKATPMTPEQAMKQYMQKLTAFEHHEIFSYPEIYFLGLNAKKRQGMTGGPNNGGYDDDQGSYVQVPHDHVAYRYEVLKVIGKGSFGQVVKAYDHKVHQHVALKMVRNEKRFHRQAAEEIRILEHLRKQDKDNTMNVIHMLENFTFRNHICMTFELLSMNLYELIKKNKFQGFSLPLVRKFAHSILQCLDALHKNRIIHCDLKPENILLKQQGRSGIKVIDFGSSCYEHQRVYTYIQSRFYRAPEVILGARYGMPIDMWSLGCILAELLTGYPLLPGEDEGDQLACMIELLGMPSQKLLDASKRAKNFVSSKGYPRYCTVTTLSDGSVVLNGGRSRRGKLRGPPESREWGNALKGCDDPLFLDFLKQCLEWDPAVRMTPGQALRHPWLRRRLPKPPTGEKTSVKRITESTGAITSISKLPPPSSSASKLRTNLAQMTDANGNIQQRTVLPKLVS
Experimental: (§2) Hits are identified by an ultra-sensitive quantitative PCR detecting the specific DNA tag linked to each kinase (Supplementary Figure S2). The drug is used at a concentration of 10 µM and results are expressed as the percentage of signal (kinase PCR detection) with respect to DMSO control conditions. Thirteen hits were identified, with a signal reduction ranging from 0 to 27% (Table 3). Full raw data are presented in Supplementary Table S4. Interactions between 0 and 20% of reduction were considered to be the most significant ones. […] A sub-micromolar affinity (Kd<1 µM) was only seen with two PIKs (PIP4K2C, PI4KB) and GAK (Table 4). Inhibitions curves from these compounds are shown in Supplementary Figure S3.

MKNK2 [6] = target: T9, MKNK2; experiment: Kd select analysis (DiscoverX); assay type: binding
Experimental: as §2

## Nc1ccc(N=Nc2ccccc2)c(N)n1 [phenazopyridine, 2,6-diamino-3-(phenylazo)pyridine]
ABL2
  kinase inhibition: 96
ACVR2B
  kinase inhibition: 84
CSNK2A2
  kinase inhibition: 63
DRAK2
  kinase inhibition: 100
EGFR(S752-I759del)
  kinase inhibition: 97
EPHA8
  kinase inhibition: 86
INSRR
  kinase inhibition: 100
[1]
  kinase inhibition: 97
MKNK2 [2]; MKNK2, read-out: % Of control
  remaining binding at 10 µM: 6.6%
MKNK2 [2]; MKNK2, 10 µM
  remaining binding (% of control): 6.6
MKNK2 [2]; MNK2, read-out: Kinome scan (% of control at 10 µM)
  remaining binding at 10 µM: 6.6%
p38-beta
  kinase inhibition: 83
PDGFRB
  kinase inhibition: 44
PLK2
  % of control (remaining binding): 92
PRKD2
  kinase inhibition: 100
PRKG1
  kinase inhibition: 92
RIOK3
  remaining binding (% of control): 100
[3]
  kinase inhibition: 86
TAOK2
  kinase inhibition: 91
TRKA
  kinase inhibition: 100
YANK1
  kinase inhibition: 98
YANK3
  kinase inhibition: 100
YSK1
  kinase inhibition: 96
[4]
  remaining activity at 10 µM: 20%
[5]
  remaining activity at 10 µM: 49%
Abelson (Abl); 500 µM, data not shown
  inhibition at 500 µM: 35%
Abelson (Abl)
  Milano activity test: not inhibited
Abelson (Abl); listed as Phenazopyridine
  Milano activity test: Phenazopyridine is inactive at 100 µM
DYRK2
  Kd: 5 µM
MKNK2 [6]
  Kd: 2.1 µM
